Laboratory results reported in ChEMBL document CHEMBL1129440, “The use of topographical constraints in receptor mapping: investigation of the topographical requirements of the tryptophan 30 residue for receptor binding of Asp-Tyr-D-Phe-Gly-Trp-(N-Me)Nle-Asp-Phe-NH2 (SNF 9007), a cholecystokinin (26-33) analogue that binds to both CCK-B and delta-opioid …” (J Med Chem, 1996).

What was measured:
[1] = target: T1, Cholecystokinin receptor type A (Cavia porcellus, UniProt Q63931); test: Binding affinity towards Cholecystokinin type A receptor was determined in guinea pig pancreatic membranes using [125I]-BH-CCK-8 as radioligand; assay type: cell membranes
T1 sequence (Q63931 whole entry): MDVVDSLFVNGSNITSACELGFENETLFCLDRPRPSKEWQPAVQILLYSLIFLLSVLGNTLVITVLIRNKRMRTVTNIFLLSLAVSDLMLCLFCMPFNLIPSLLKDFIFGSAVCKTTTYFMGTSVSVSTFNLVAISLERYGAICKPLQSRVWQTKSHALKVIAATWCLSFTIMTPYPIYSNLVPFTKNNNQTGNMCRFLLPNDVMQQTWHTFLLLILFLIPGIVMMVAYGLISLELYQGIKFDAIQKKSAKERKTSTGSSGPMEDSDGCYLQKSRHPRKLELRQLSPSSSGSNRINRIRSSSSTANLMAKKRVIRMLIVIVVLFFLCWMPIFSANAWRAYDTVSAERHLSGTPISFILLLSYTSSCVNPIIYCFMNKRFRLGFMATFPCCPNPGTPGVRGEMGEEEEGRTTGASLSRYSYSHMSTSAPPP

Mu-type opioid receptor = Mu-type opioid receptor (Cavia porcellus, UniProt P97266); test: Binding affinity towards Opioid receptor mu 1 was determined in guinea pig whole brain using [3H]CTOP radioligand
Sequence of Mu-type opioid receptor (P97266 whole entry): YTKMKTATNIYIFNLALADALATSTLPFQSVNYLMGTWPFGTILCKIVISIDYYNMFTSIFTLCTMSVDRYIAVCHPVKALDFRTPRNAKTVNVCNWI

Compound | IC50 ([1]; read-out: IC50) | IC50 (Mu-type opioid receptor) | IC50 [1]
CCCC[C@@H](C(=O)N[C@@H](CC(=O)O)C(=O)N[C@@H](Cc1ccccc1)C(N)=O)N(C)C(=O)[C@H](NC(=O)CNC(=O)[C@@H](Cc1ccccc1)NC(=O)[C@H](Cc1ccc(O)cc1)NC(=O)[C@@H](N)CC(=O)O)[C@H](C)c1c[nH]c2ccccc12 | 8.6 µM | > 30 µM | 
CCCC[C@@H](C(=O)N[C@@H](CC(=O)O)C(=O)N[C@@H](Cc1ccccc1)C(N)=O)N(C)C(=O)[C@H](NC(=O)CNC(=O)[C@@H](Cc1ccccc1)NC(=O)[C@H](Cc1ccc(O)cc1)NC(=O)[C@@H](N)CC(=O)O)[C@@H](C)c1c[nH]c2ccccc12 | 8.6 µM | > 30 µM | 
CCCC[C@@H](C(=O)N[C@@H](CC(=O)O)C(=O)N[C@@H](Cc1ccccc1)C(N)=O)N(C)C(=O)[C@@H](NC(=O)CNC(=O)[C@@H](Cc1ccccc1)NC(=O)[C@H](Cc1ccc(O)cc1)NC(=O)[C@@H](N)CC(=O)O)[C@H](C)c1c[nH]c2ccccc12 | 1 µM | 3.05 µM | 
CCCC[C@@H](C(=O)N[C@@H](CC(=O)O)C(=O)N[C@@H](Cc1ccccc1)C(N)=O)N(C)C(=O)[C@@H](NC(=O)CNC(=O)[C@@H](Cc1ccccc1)NC(=O)[C@H](Cc1ccc(O)cc1)NC(=O)[C@@H](N)CC(=O)O)[C@@H](C)c1c[nH]c2ccccc12 | > 1.2 µM | 6.8 µM | 
CCCC[C@@H](C(=O)N[C@@H](CC(=O)O)C(=O)N[C@@H](Cc1ccccc1)C(N)=O)N(C)C(=O)[C@H](Cc1c[nH]c2ccccc12)NC(=O)CNC(=O)[C@@H](Cc1ccccc1)NC(=O)[C@H](Cc1ccc(O)cc1)NC(=O)[C@@H](N)CC(=O)O | > 12 µM | 0.7 µM | 
CC1(C)SSC(C)(C)[C@H](C(=O)O)NC(=O)C(Cc2ccccc2)NC(=O)CNC(=O)C1NC(=O)[C@@H](N)Cc1ccc(O)cc1 (single isomer, unassigned) |  |  | Not Active
